Molecules are shown by their SMILES. ≈ marks a conversion by molar mass, not a printed value.

The test system of series [1] is Acinetobacter baumannii. As to the kind of experiment: Antimicrobial activity against Acinetobacter baumannii ATCC 17978 by microdilution broth method. Format: functional. A general note: Broth dilution looks for growth in wells or tubes with falling amounts of substance.
For series [2], the system named is Pseudomonas aeruginosa. As to the kind of experiment: Antimicrobial activity against Pseudomonas aeruginosa PAO1 by microdilution broth method. Format: functional.
In series [3] the test system is Enterococcus faecium. As to the kind of experiment: Antibacterial activity against vancomycin resistant Enterococcus faecium NCTC 12204 by microdilution broth method. Format: functional.
Series [4] deals with Enterococcus faecalis. As to the kind of experiment: Antibacterial activity against vancomycin resistant Enterococcus faecalis NCTC 12201 by microdilution broth method. Type of series: functional.
For series [5], the system named is Enterococcus faecalis. As to the kind of experiment: Antibacterial activity against vancomycin sensitive Enterococcus faecalis NCTC 775 by microdilution broth method. Format: functional.
In series [6] the test system is Staphylococcus aureus. Kind of series: Antibacterial activity against methicillin resistant Staphylococcus aureus NCTC 13616 by microdilution broth method. Type of series: functional.
The test system of series [7] is Staphylococcus aureus. As to the kind of experiment: Antibacterial activity against methicillin resistant Staphylococcus aureus NCTC 13277 by microdilution broth method. Format: functional.
The subject of series [8] is Staphylococcus aureus. As to the kind of experiment: Antibacterial activity against methicillin sensitive Staphylococcus aureus NCTC 6571 by microdilution broth method. Format: functional.
The subject of series [9] is DNA. As to the kind of experiment: Stabilization of 5'-FAM-TAT-ATA-TAG-ATA-TTT-TTT-TAT-CTA-TAT-ATA-3'-TAMRA DNA (unknown origin) assessed as reduction in change in melting temperature at 1:1 to 5:1 ligand to DNA ratio measured after 3 hrs by FRET-based assay relative to control. Format: ADME, nucleic-acid assay.
Series [10] concerns DNA. As to the kind of experiment: Stabilization of 5'-FAM-TAT-AGA-TAT-AGA-TAT-TTT-ATA-TCT-ATA-TCT-ATA-3'-TAMRA DNA (unknown origin) assessed as reduction in change in melting temperature at 1:1 to 5:1 ligand to DNA ratio measured after 3 hrs by FRET-based assay relative to control. Type of series: ADME, nucleic-acid assay.
A short description of series [11]: Cytotoxicity against human WI38 cells assessed as cell viability at 20 uM measured after 24 hrs by MTT assay relative to control. To be noted: read-out: Activity. Type of series: cell-based, WI-38. On the technique in general: Tetrazolium dyes change colour on reduction, which living cells bring about.
The nature of series [12]: Selectivity ratio of cytotoxicity against human WI38 cells to MIC for Acinetobacter baumannii ATCC 17978. Format: toxicity, cell-based.
Series [13] can be described thus: Selectivity ratio of cytotoxicity against human WI38 cells to MIC for multidrug-resistant Acinetobacter baumannii AYE. Format: toxicity, cell-based.
A short description of series [14]: Selectivity ratio of cytotoxicity against human WI38 cells to MIC for Klebsiella pneumoniae M6. Format: toxicity, cell-based.
Series [15] can be described thus: Selectivity ratio of cytotoxicity against human WI38 cells to MIC for multidrug-resistant Klebsiella pneumoniae NCTC 13368. Type of series: toxicity, cell-based.
Series [16] can be described thus: Selectivity ratio of cytotoxicity against human WI38 cells to MIC for Pseudomonas aeruginosa PAO1. Type of series: toxicity, cell-based.
A short description of series [17]: Selectivity ratio of cytotoxicity against human WI38 cells to MIC for multidrug-resistant Pseudomonas aeruginosa NCTC 13437. Format: toxicity, cell-based.
Series [18] in a line: Selectivity ratio of cytotoxicity against human WI38 cells to MIC for vancomycin resistant Enterococcus faecium NCTC 12204. Format: toxicity, cell-based.
The nature of series [19]: Selectivity ratio of cytotoxicity against human WI38 cells to MIC for vancomycin resistant Enterococcus faecalis NCTC 12201. Format: toxicity, cell-based.
Series [20] is described as follows: Selectivity ratio of cytotoxicity against human WI38 cells to MIC for vancomycin sensitive Enterococcus faecalis NCTC 775. Format: toxicity, cell-based.
Series [21] is described as follows: Selectivity ratio of cytotoxicity against human WI38 cells to MIC for methicillin resistant Staphylococcus aureus NCTC 13616. Type of series: toxicity, cell-based.
Series [22] in a line: Selectivity ratio of cytotoxicity against human WI38 cells to MIC for methicillin resistant Staphylococcus aureus NCTC 13277. Type of series: toxicity, cell-based.
A short description of series [23]: Selectivity ratio of cytotoxicity against human WI38 cells to MIC for methicillin sensitive Staphylococcus aureus NCTC 6571. Format: toxicity, cell-based.
Series [24] concerns Acinetobacter baumannii. As to the kind of experiment: Antimicrobial activity against multidrug-resistant Acinetobacter baumannii AYE by microdilution broth method. Format: functional.

One may read the MIC as the least concentration at which growth counts as inhibited. High values mean weaker potency, low ones greater potency. As to `COc1cc2c(cc1OCCCC(=O)Nc1cc(C(=O)Nc3ccc4sc(C(=O)N5CCOCC5)cc4c3)n(C)c1)N=C[C@@H]1CCCN1C2=O`, the MIC in [1] is 8 µg/mL (≈ 11.4 µM); in series [2], 64 µg/mL (≈ 91.6 µM); in [3], not above 0.125 µg/mL; in series [4], not above 0.125 µg/mL; in [5], not above 0.125 µg/mL; in [6] it was not above 0.125 µg/mL. Also, the MIC in [7] is 0.5 µg/mL (≈ 0.716 µM); in series [8], not above 0.125 µg/mL. Besides, the fold change (FC) in series [9] and in series [10] was 3 to 4 in each case. The viability at 24 h, 20 µM in series [11] is more than 85%. The selectivity ratio in series [12], in [13], in [14], in [15], in series [16] and in series [17] was 10 in each case. In addition, the selectivity ratio in series [18], in series [19], in [20], in series [21], in series [22] and in series [23] was 100 throughout.
Take `COc1cc2c(cc1OCCCC(=O)Nc1cc(C(=O)Nc3ccc4sc(C(=O)N5CCSCC5)cc4c3)n(C)c1)N=C[C@@H]1CCCN1C2=O`: the minimal inhibitory concentration (MIC) is 2 µg/mL (≈ 2.8 µM) in series [1]; 64 µg/mL (≈ 89.5 µM) in [2]; not above 0.125 µg/mL in series [3]; not above 0.125 µg/mL in [4]; not above 0.125 µg/mL in [5]; not above 0.125 µg/mL in series [6]. Besides, the MIC in series [7] and in [8] was not above 0.125 µg/mL each time. Besides, the fold change (FC) in [9] and in series [10] was 3 to 4 in each case. The viability at 24 h, 20 µM in [11] was more than 85%. Further, the selectivity ratio in series [12], in series [13], in series [14], in series [15], in series [16] and in [17] was 10 in each case. Besides, the selectivity ratio in series [18], in series [19], in [20], in [21], in series [22] and in [23] was 100 throughout.
`COc1cc2c(cc1OCCCC(=O)Nc1cc(C(=O)Nc3ccc4sc(C(=O)N5CCCCC5)cc4c3)n(C)c1)N=C[C@@H]1CCCN1C2=O`: the MIC in [1] is 8 µg/mL (≈ 11.5 µM); in series [3] it was not above 0.125 µg/mL; in [4] it was not above 0.125 µg/mL; in series [6] it was 0.5 µg/mL (≈ 0.718 µM); in series [7] it was 1 µg/mL (≈ 1.44 µM); in series [8] it was not above 0.125 µg/mL. Also, the fold change (FC) in [9] and in series [10] was 3 to 4 throughout. The viability at 24 h, 20 µM in series [11] was more than 85%. Further, the selectivity ratio in [12], in [13], in series [14], in [15], in [16] and in [17] was 10 each time. The selectivity ratio in series [18], in series [19], in [20], in [21], in series [22] and in series [23] was 100 each time.
Consider `COC(=O)c1cc(NC(=O)c2cc3cc(NC(=O)c4cc(NC(=O)CCCOc5cc6c(cc5OC)C(=O)N5CCC[C@H]5C=N6)cn4C)ccc3s2)cn1C`, for which the MIC in series [1] is 64 µg/mL (≈ 83.6 µM); in series [24], 64 µg/mL (≈ 83.6 µM); in series [2], more than 128 µg/mL; in series [3], not above 0.125 µg/mL; in [4], not above 0.125 µg/mL; in series [5], not above 0.125 µg/mL. Moreover, the MIC was 0.5 µg/mL (≈ 0.653 µM) in [6], 1 µg/mL (≈ 1.31 µM) in series [7] and not above 0.125 µg/mL in series [8]. The fold change (FC) in series [9] and in [10] was 3 to 4 in each case. The viability at 24 h, 20 µM in series [11] is 32%.
On to `CCN(CC)C(=O)c1cc2cc(NC(=O)c3cc(NC(=O)CCCOc4cc5c(cc4OC)C(=O)N4CCC[C@H]4C=N5)cn3C)ccc2s1`, for which the MIC in [1] amounted to 2 µg/mL (≈ 2.92 µM); in [24] it was 2 µg/mL (≈ 2.92 µM); in [3], 1 µg/mL (≈ 1.46 µM); in [4] it was 0.5 µg/mL (≈ 0.73 µM); in series [6], 1 µg/mL (≈ 1.46 µM); in series [7], 1 µg/mL (≈ 1.46 µM). The fold change (FC) in series [9] and in series [10] was 3 to 4 each time. In addition, the viability at 24 h, 20 µM in series [11] was more than 85%. For the same molecule, the selectivity ratio in series [12], in [13], in series [14], in [15], in series [16] and in [17] was 10 each time. Further, the selectivity ratio in series [18], in series [19], in [20], in series [21], in series [22] and in series [23] was 100 in each case.
In the case of `COc1cc2c(cc1OCCCC(=O)Nc1cc(C(=O)Nc3ccc4oc(C(=O)N5CCCCC5)cc4c3)n(C)c1)N=C[C@@H]1CCCN1C2=O`, the MIC is 2 µg/mL (≈ 2.94 µM) in series [1]; not above 0.125 µg/mL in [3]; not above 0.125 µg/mL in series [4]; 0.25 µg/mL (≈ 0.367 µM) in series [6]; 0.5 µg/mL (≈ 0.734 µM) in series [7]; not above 0.125 µg/mL in series [8]. Also, the fold change (FC) in series [9] and in series [10] was 3 to 4 in each case. The viability at 24 h, 20 µM in [11] was more than 85%. For the same molecule, the selectivity ratio in series [12], in [13], in [14], in series [15], in series [16] and in series [17] was 10 in each case. Further, the selectivity ratio in series [18], in [19], in series [20], in series [21], in [22] and in [23] was 100 throughout.
For the molecule `COc1cc2c(cc1OCCCC(=O)Nc1cc(C(=O)Nc3ccc4oc(C(=O)N5CCOCC5)cc4c3)n(C)c1)N=C[C@@H]1CCCN1C2=O`, the minimum inhibitory concentration (MIC) in series [1] is 8 µg/mL (≈ 11.7 µM); in series [2] it was more than 128 µg/mL; in [3], not above 0.125 µg/mL; in series [4], not above 0.125 µg/mL; in series [5], not above 0.125 µg/mL; in series [6], not above 0.125 µg/mL. The molecule also gave an MIC in [8] not above 0.125 µg/mL. The fold change (FC) in series [9] and in series [10] was 3 to 4 throughout. Further, in [11], the viability at 24 h, 20 µM is more than 85%. In addition, the selectivity ratio in [12], in [13], in [14], in series [15], in series [16] and in series [17] was 10 each time. Also, the selectivity ratio in series [18], in [19], in series [20], in series [21], in series [22] and in series [23] was 100 each time.

These data come from ChEMBL document CHEMBL4610120, “New Broad-Spectrum Antibiotics Containing a Pyrrolobenzodiazepine Ring with Activity against Multidrug-Resistant Gram-Negative Bacteria” (J Med Chem, 2020).
